{
  "source": "patent US7342016B2",
  "about": "“Farnesyl protein transferase inhibitors as antitumor agents” (Schering Corporation, priority 2000, dated 2008)",
  "assay_in_all_cases": "In vivo anti-tumor study, s.c. tumor in athymic nu/nu female mice, percent inhibition of tumor growth",
  "key": {"[1]": {"tested_on": "HTB-177 human non small cell lung cancer cells", "conditions": "po, x3", "experimental": "(§1) Various tumor cells (5×10^5 to 8×10^6) were innoculated subcutaneously into the flank of 5-6 week old athymic nu/nu female mice. Three tumor cell models were used: mouse fibroblasts transformed with H-Ras; HTB-177 human non small cell lung cancer cells or LOX human melanoma cells. Animals were treated with beta cyclodextran vehicle only or compounds in vehicle twice a day (BID) or once a day (QD) for 7 days per week for 1 (×1), 2 (×2) or 3 (×3) weeks. The percent inhibition of tumor growth relative to vehicle controls were determined by tumor measurements."}, "[2]": {"tested_on": "mouse fibroblasts transformed with H-Ras", "conditions": "po, x2", "experimental": "as §1"}, "LOX human melanoma cells": {"tested_on": "LOX human melanoma cells", "conditions": "po, BID, x1", "experimental": "as §1"}},
  "note": "Where “and” joins values, the source holds several entries; their conditions need not be identical. Identical values can stand only once.",
  "data": [
    {"smiles": "Cc1nccn1CC1=Cc2cccnc2C(N2CCN(C(=O)Nc3ccc(C#N)cc3)CC2)c2ccc(Cl)cc21", "note": "(stereo not shown) [(372)]", "values": [
      {"measurement": "Average % Tumor Inhibition", "setting": "[1]; 20 MPK, BID", "result": "43% and 47%"},
      {"measurement": "Average % Tumor Inhibition", "setting": "[1]; 40 MPK, BID", "result": 79, "unit": "%"},
      {"measurement": "Average % Tumor Inhibition", "setting": "[1]; 40 MPK, QD", "result": 11, "unit": "%"},
      {"measurement": "Average % Tumor Inhibition", "setting": "[1]; 60 MPK, BID", "result": 87, "unit": "%"},
      {"measurement": "Average % Tumor Inhibition", "setting": "[1]; 80 MPK, BID", "result": 96, "unit": "%"},
      {"measurement": "Average % Tumor Inhibition", "setting": "[1]; 120 MPK, QD", "result": 54, "unit": "%"},
      {"measurement": "Average % Tumor Inhibition", "setting": "[2]; 6.6 MPK, BID", "result": 19, "unit": "%"},
      {"measurement": "Average % Tumor Inhibition", "setting": "[2]; 10 MPK, BID", "result": 70, "unit": "%"},
      {"measurement": "Average % Tumor Inhibition", "setting": "[2]; 20 MPK, BID", "result": 59, "unit": "%"},
      {"measurement": "Average % Tumor Inhibition", "setting": "[2]; 20 MPK, QD", "result": 55, "unit": "%"},
      {"measurement": "Average % Tumor Inhibition", "setting": "[2]; 40 MPK, BID", "result": 92, "unit": "%"},
      {"measurement": "Average % Tumor Inhibition", "setting": "[2]; 60 MPK, BID", "result": 98, "unit": "%"},
      {"measurement": "Average % Tumor Inhibition", "setting": "[2]; 80 MPK, QD", "result": 91, "unit": "%"},
      {"measurement": "Average % Tumor Inhibition", "setting": "LOX human melanoma cells; 15 MPK", "result": 20.9, "unit": "%"},
      {"measurement": "Average % Tumor Inhibition", "setting": "LOX human melanoma cells; 30 MPK", "result": 54.8, "unit": "%"},
      {"measurement": "Average % Tumor Inhibition", "setting": "LOX human melanoma cells; 60 MPK", "result": 90.3, "unit": "%"}
    ]}
  ]
}
